The results in this text go back to ChEMBL document CHEMBL4024791, “Identification of Morpholino-2H-pyrido[3,2-b][1,4]oxazin-3(4H)-ones as Nonsteroidal Mineralocorticoid Antagonists” (J Med Chem, 2018).

Series [1] in a line: Intrinsic clearance in human liver microsomes.
The next series deals with hERG (KCNH2) (Homo sapiens, UniProt Q12809). Kind of series: Displacement of [3H]-dofetilide from human ERG at 10 uM. The note with it: probe [3H]-dofetilide. (Loss of bound radioactivity is the signal in a displacement assay; it reports binding, not function.)
A short description of series [2]: Apparent permeability in RRCK cells. The note with it: dog, MDCK. The series is classed as ADME, cell-based, Canis lupus familiaris, MDCKII-LE.
Series [3] can be described thus: Oral bioavailability in dog. It is filed as ADME, organism-based, Canis lupus familiaris. The following applies: in vivo.
Series [4] in a line: Oral bioavailability in rat. The series is classed as ADME, organism-based. The note with it: in vivo.
The target of the next series is T1, Androgen receptor (Homo sapiens, UniProt P10275).
T1 sequence (P10275 whole entry): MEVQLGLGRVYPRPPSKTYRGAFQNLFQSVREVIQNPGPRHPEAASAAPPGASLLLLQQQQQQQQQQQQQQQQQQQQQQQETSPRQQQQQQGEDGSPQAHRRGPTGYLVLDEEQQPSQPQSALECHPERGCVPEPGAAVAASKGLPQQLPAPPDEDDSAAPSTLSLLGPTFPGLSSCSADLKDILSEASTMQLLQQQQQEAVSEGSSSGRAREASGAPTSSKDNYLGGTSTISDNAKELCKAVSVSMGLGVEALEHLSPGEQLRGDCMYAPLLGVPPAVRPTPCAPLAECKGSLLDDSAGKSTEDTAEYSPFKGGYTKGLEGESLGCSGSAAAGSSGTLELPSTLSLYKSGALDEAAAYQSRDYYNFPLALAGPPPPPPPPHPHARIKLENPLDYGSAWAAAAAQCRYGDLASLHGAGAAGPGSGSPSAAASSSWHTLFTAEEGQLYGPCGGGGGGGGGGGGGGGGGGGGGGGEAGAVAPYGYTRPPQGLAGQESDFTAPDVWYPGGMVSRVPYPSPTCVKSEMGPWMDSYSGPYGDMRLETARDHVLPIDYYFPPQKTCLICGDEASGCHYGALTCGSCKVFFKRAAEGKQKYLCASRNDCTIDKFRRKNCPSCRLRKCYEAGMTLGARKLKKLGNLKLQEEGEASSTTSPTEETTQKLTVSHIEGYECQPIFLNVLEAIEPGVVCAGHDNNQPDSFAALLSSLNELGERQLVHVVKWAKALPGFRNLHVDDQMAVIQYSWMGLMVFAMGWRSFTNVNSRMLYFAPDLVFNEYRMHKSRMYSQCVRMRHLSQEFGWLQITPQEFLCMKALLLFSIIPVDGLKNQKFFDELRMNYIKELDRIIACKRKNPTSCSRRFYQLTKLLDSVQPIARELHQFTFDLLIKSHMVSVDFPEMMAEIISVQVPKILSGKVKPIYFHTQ
Kind of series: Binding affinity to AR (unknown origin). The series is classed as ADME.

Series [5] deals with T2, Mineralocorticoid receptor (Rattus norvegicus, UniProt P22199).
T2 sequence (P22199 whole entry): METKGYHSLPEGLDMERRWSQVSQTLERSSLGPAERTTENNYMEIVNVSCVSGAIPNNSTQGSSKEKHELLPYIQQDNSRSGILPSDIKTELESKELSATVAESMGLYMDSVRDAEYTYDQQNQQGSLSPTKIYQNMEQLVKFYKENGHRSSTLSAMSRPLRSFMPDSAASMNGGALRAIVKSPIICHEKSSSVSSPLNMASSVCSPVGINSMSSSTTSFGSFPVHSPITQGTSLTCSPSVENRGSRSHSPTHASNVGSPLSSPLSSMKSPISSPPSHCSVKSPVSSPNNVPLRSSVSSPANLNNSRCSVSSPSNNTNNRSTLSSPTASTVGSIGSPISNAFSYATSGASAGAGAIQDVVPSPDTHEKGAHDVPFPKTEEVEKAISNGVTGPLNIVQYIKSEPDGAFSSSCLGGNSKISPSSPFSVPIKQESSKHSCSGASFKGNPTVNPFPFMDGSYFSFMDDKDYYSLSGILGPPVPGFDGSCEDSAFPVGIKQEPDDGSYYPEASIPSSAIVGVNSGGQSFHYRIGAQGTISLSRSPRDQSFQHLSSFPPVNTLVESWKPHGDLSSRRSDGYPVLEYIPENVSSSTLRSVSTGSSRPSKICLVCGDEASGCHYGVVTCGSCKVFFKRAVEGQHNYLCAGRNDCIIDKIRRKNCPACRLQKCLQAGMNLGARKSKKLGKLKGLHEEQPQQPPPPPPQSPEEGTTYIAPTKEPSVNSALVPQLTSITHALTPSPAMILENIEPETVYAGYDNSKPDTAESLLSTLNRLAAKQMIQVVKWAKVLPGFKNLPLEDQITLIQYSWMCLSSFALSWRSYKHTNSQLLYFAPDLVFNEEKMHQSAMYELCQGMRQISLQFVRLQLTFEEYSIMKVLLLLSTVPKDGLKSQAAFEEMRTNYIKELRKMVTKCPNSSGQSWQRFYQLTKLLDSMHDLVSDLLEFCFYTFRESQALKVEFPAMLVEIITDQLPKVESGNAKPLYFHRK
Kind of series: Antagonist activity at rat GAL4-DBD fused MR ligand binding domain transfected in human Huh7 cells co-expressing GAL4-RE-Luc assessed as reduction in aldosterone-induced luciferase activity after 16 hrs in serum free condition by luciferase reporter gene assay. It is filed as cell-based. On the technique in general: Reporter assays use an easily measured gene product as a stand-in for the process of interest.

Series [6] is described as follows: Thermodynamic solubility of the compound in phosphate buffered saline at pH 6.5. The note with it: read-out: Therm_solubility. The series is classed as physicochemical.
A further series relates to Salmonella typhimurium. Kind of series: Genotoxicity in Salmonella typhimurium by Ames test. The series is classed as toxicity. The following applies: salmonella enterica subsp. enterica serovar typhimurium. On the technique in general: The Ames test detects mutagens through reverse mutation in bacteria.

Values after ≈ are worked out from the molar mass of the structure shown.

hERG (KCNH2), sequence (Q12809 whole entry): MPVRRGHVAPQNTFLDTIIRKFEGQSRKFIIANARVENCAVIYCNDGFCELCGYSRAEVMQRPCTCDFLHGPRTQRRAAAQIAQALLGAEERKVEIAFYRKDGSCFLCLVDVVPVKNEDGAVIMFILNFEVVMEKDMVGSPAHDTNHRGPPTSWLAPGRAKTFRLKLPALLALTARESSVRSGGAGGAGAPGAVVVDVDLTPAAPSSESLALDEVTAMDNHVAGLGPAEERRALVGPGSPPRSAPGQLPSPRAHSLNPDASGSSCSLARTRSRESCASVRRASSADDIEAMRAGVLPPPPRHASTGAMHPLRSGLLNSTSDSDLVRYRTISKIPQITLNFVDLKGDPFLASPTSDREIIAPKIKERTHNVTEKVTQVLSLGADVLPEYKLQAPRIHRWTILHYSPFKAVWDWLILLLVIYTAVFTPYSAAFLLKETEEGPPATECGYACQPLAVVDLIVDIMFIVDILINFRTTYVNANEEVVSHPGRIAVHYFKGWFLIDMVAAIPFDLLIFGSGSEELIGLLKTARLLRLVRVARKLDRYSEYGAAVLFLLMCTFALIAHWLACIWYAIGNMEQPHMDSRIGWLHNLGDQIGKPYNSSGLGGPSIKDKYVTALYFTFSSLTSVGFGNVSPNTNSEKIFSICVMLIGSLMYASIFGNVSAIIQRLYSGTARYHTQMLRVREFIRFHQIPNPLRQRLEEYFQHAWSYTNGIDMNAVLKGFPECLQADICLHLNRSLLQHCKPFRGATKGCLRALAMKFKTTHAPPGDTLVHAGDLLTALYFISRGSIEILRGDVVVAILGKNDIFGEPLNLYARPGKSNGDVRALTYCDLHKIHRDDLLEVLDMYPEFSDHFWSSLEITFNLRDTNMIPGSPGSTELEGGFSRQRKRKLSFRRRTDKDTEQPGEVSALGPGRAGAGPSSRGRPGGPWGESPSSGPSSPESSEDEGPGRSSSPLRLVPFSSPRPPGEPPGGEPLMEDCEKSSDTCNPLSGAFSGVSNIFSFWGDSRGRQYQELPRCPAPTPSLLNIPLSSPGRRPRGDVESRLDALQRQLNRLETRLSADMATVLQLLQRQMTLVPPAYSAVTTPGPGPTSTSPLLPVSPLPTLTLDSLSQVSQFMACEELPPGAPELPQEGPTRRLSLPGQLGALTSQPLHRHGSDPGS

Broadly, the microsomal CLint is the rate of metabolic loss divided by the concentration. Read a high microsomal CLint as faster metabolism. The inhibition is the percentage by which the read-out fell short of the control. High values mean a response far below the control, low ones a response near the control. In general, Papp refers to a coefficient for how fast a substance crosses the barrier. As for `O=C1COc2ccc(N3CCOC[C@H]3c3ccccc3)cc2N1`, the microsomal CLint in series [1] was 18.3 µL/min/mg. The inhibition at 10 µM on hERG (KCNH2) was found to be 5%. Also, the Papp in series [2] was 29.3 ×10⁻⁶ cm/s.

Usually bioavailability stands for dose-corrected exposure relative to a reference, in per cent. Higher therefore signals much systemic uptake. Usually IC50 stands for the point on the concentration scale where inhibition reaches its midpoint. Take `C[C@@H]1CN(c2ccc3c(n2)NC(=O)CO3)[C@H](c2ccccc2)CO1`: the bioavailability in [3] was 65%; in series [4], 4 to 16%. Further, the values for the IC50 (at Androgen receptor; in [5]) were over 10000 nM and 3.2 nM, respectively. Besides, the solubility thermodynamic in series [6] was determined as 17 µM (≈ 5.53 µg/mL). Also, in the series with Salmonella typhimurium, the Activity entry was “Non-Toxic”.
